Test results taken from ChEMBL document CHEMBL1201862, “PubChem BioAssay data set” (2004).
“And” between values parts separate entries of the source, which are not always exact repeats. Equal values may be shown once.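 Method: 48-hour compound exposure of cells in 96-well plates, five concentrations, linear interpolation of endpoints. GI50 is the concentration that inhibits growth by half.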 The source made the active and inactive calls. No stated cut-off is given here; in the data, active = GI50 up to about 1.1 µM and inactive = higher.

Experiments:
Assay in all cases: inhibition of tumour cell growth, NCI panel, 48 h
SK-MEL-28 = system: SK-MEL-28
U-251 = system: U-251
Malme-3M = system: Malme-3M
OVCAR-4 = system: OVCAR-4
OVCAR-5 = system: OVCAR-5
SF-295 = system: SF-295
SN12C = system: SN12C
SK-MEL-5 = system: SK-MEL-5
SNB-75 = system: SNB-75
UO-31 = system: UO-31
NCI-H226 = system: NCI-H226
UACC-62 = system: UACC-62
UACC-257 = system: UACC-257
SNB-19 = system: SNB-19
COLO 205 = system: COLO 205
K562 = system: K562
TK-10 = system: TK-10

| SMILES | GI50 (SK-MEL-28) | GI50 (U-251) | GI50 (Malme-3M) | GI50 (OVCAR-4) | GI50 (OVCAR-5) | GI50 (SF-295) | GI50 (SN12C) | GI50 (SK-MEL-5) | GI50 (SNB-75) | GI50 (UO-31) | GI50 (NCI-H226) | GI50 (UACC-62) | GI50 (UACC-257) | GI50 (SNB-19) | GI50 (COLO 205) | GI50 (K562) | GI50 (TK-10) |
| --- | --- | --- | --- | --- | --- | --- | --- | --- | --- | --- | --- | --- | --- | --- | --- | --- | --- |
| CC(=O)c1ccc2c(c1)c1c(C)c3c[n+](C)ccc3c(C)c1n2C | 7.87 µM (inactive) | 0.706 µM (active) | 10.4 µM (inactive) | 4.85 µM (inactive) | 28.9 µM (inactive) | 0.885 µM (active) | 0.499 µM (active) | 4.73 µM (inactive) | 7.48 µM (inactive) | 3.36 µM (inactive) | 2.82 µM (inactive) | 1.87 µM (inactive) | 6.35 µM (inactive) | 1.07 µM (active) | 9.57 µM (inactive) | 14.8 µM (inactive) | – |
| CN(C)C(=O)/C=C/c1c[nH]c(=O)[nH]c1=O | > 500 µM (inactive) | > 500 µM (inactive) | > 500 µM (inactive) | > 500 µM (inactive) | > 500 µM (inactive) | > 500 µM (inactive) | > 500 µM (inactive) | > 500 µM (inactive) | > 500 µM (inactive) | > 500 µM (inactive) | > 500 µM (inactive) | > 500 µM (inactive) | > 500 µM (inactive) | > 500 µM (inactive) | > 500 µM (inactive) | > 500 µM (inactive) | – |
| O=C1C(=O)N(c2cc(Cl)ccc2Cl)C(=O)C(=O)C1c1nc2ccccc2o1 | > 100 µM (inactive) | > 100 µM (inactive) | > 100 µM (inactive) | > 100 µM (inactive) | > 100 µM (inactive) | > 100 µM (inactive) | > 100 µM (inactive) | > 100 µM (inactive) | > 67.6 µM (inactive) | > 70.8 µM (inactive) | – | > 100 µM (inactive) | > 100 µM (inactive) | > 100 µM (inactive) | > 100 µM (inactive) | 61.1 µM (inactive) | > 100 µM (inactive) |
| COc1ccc(C2=CC3CCC2C3)cc1 (configuration not stated) | > 100 µM (inactive) | > 100 µM (inactive) | > 100 µM (inactive) | > 100 µM (inactive) | > 100 µM (inactive) | > 100 µM (inactive) | > 100 µM (inactive) | > 100 µM (inactive) | > 100 µM (inactive) | > 100 µM (inactive) | – | > 100 µM (inactive) | > 100 µM (inactive) | > 100 µM (inactive) | > 100 µM (inactive) | > 100 µM (inactive) | > 100 µM (inactive) |
| CC1NOC(=O)C1/N=N/c1ccccc1Cl (configuration not stated) | 32.7 µM (inactive) | 42.4 µM (inactive) | 25.5 µM (inactive) | 39.9 µM (inactive) | 34.8 µM (inactive) | 74.1 µM (inactive) | 40.6 µM (inactive) | 13.8 µM (inactive) | 21.2 µM (inactive) | 13.9 µM (inactive) | – | 31.1 µM (inactive) | 17.8 µM (inactive) | 51.1 µM (inactive) | 57.7 µM (inactive) | 40.7 µM (inactive) | 90.4 µM (inactive) |
| CCOC(=O)c1ncoc1[C@H]1COC(C)(C)O1 | – | > 100 µM (inactive) | > 100 µM (inactive) | > 100 µM (inactive) | > 100 µM (inactive) | > 100 µM (inactive) | > 100 µM (inactive) | > 100 µM (inactive) | > 100 µM (inactive) | > 100 µM (inactive) | > 100 µM (inactive) | > 100 µM (inactive) | > 100 µM (inactive) | > 100 µM (inactive) | – | > 100 µM (inactive) | > 100 µM (inactive) |
| COCCOCCOCCOc1cccc2c1C(=O)c1cccc(OCCOCCOCCOC)c1C2=O | > 100 µM (inactive) | > 100 µM (inactive) | – | > 100 µM (inactive) | – | > 100 µM (inactive) | > 100 µM (inactive) | 81.5 µM (inactive) | > 100 µM (inactive) | – | – | > 100 µM (inactive) | > 100 µM (inactive) | > 100 µM (inactive) | > 100 µM (inactive) | 37.8 µM (inactive) | > 100 µM (inactive) |
| CCCCCCCCCCSCC(CO)NC(=O)/C=C/c1c(C)[nH]c(=O)[nH]c1=O (configuration not stated) | 1.77 µM (inactive) and 1.85 µM (inactive) | 532 nM (active) and 355 nM (active) | 813 nM (active) and 703 nM (active) | – | > 21.2 µM (inactive) and > 27.5 µM (inactive) | 29.1 µM (inactive) and 17.9 µM (inactive) | 1.37 µM (inactive) and 1.09 µM (active) | 1.16 µM (inactive) and 1.36 µM (inactive) | 1.39 µM (inactive) and 1.32 µM (inactive) | 10.5 µM (inactive) and 6.84 µM (inactive) | – | 1.03 µM (active) and 1.17 µM (inactive) | – | 881 nM (active) and 925 nM (active) | 762 nM (active) and 1.19 µM (inactive) | 908 nM (active) and 1.12 µM (inactive) | – |
| Nc1ccc(/N=N/c2ccc(/C=C/c3ccc(/N=N/c4ccc(N)c5ccc(S(=O)(=O)O)cc45)cc3S(=O)(=O)O)c(S(=O)(=O)O)c2)c2cc(S(=O)(=O)O)ccc12 | > 100 µM (inactive) | > 100 µM (inactive) | > 100 µM (inactive) | > 100 µM (inactive) | > 100 µM (inactive) | > 100 µM (inactive) | > 100 µM (inactive) | > 100 µM (inactive) | 56.2 µM (inactive) | > 100 µM (inactive) | > 71.1 µM (inactive) | > 100 µM (inactive) | > 100 µM (inactive) | > 100 µM (inactive) | > 100 µM (inactive) | > 100 µM (inactive) | – |
| COc1cccc(-c2nccc3c(OCc4ccccc4)c(OC)c(OC)cc23)c1 | – | 6.46 µM (inactive) | 2.94 µM (inactive) | – | > 100 µM (inactive) | > 100 µM (inactive) | 7.67 µM (inactive) | 8.97 µM (inactive) | > 100 µM (inactive) | 7.29 µM (inactive) | > 100 µM (inactive) | > 100 µM (inactive) | > 100 µM (inactive) | > 100 µM (inactive) | > 100 µM (inactive) | 4.91 µM (inactive) | > 100 µM (inactive) |
| CN(C)CC(CC1=C(CC(CN(C)C)N(C)C)CCC1)N(C)C (configuration not stated) | > 100 µM (inactive) | > 100 µM (inactive) | > 100 µM (inactive) | > 100 µM (inactive) | > 100 µM (inactive) | > 100 µM (inactive) | > 100 µM (inactive) | > 100 µM (inactive) | > 100 µM (inactive) | > 100 µM (inactive) | > 100 µM (inactive) | > 100 µM (inactive) | > 100 µM (inactive) | > 100 µM (inactive) | > 100 µM (inactive) | > 100 µM (inactive) | – |
| C1=CC(=NN=P(c2ccccc2)(c2ccccc2)c2ccccc2)C=C1 | > 100 µM (inactive) | – | > 100 µM (inactive) | > 100 µM (inactive) | > 100 µM (inactive) | – | > 100 µM (inactive) | > 100 µM (inactive) | > 100 µM (inactive) | > 100 µM (inactive) | – | > 100 µM (inactive) | > 100 µM (inactive) | > 100 µM (inactive) | > 100 µM (inactive) | 64 µM (inactive) | > 100 µM (inactive) |
| C=C1C(=O)OCC2C(C(=O)O)=CC3C(C)C(C)=CC123 (configuration not stated) | 3.52 µM (inactive) | 11 µM (inactive) | 7.33 µM (inactive) | 8.32 µM (inactive) | 27.5 µM (inactive) | 15 µM (inactive) | 8.73 µM (inactive) | 9.31 µM (inactive) | 13.9 µM (inactive) | 14 µM (inactive) | 19.1 µM (inactive) | 5.41 µM (inactive) | 16.7 µM (inactive) | 11.8 µM (inactive) | 10.6 µM (inactive) | 10.2 µM (inactive) | – |
| CCCCCCCC/C=C\CCCCCCCC(=O)O [OLEIC ACID] | 149 µM (inactive) | 149 µM (inactive) | > 500 µM (inactive) | > 291 µM (inactive) | > 500 µM (inactive) | 99.1 µM (inactive) | 51.6 µM (inactive) | > 212 µM (inactive) | 24.5 µM (inactive) | 158 µM (inactive) | 9.48 µM (inactive) | 180 µM (inactive) | 105 µM (inactive) | 143 µM (inactive) | > 500 µM (inactive) | 104 µM (inactive) | – |
| O=C1c2ccccc2C(=O)N1CCn1nc(-c2ccccc2)cc(-c2ccccc2)c1=O | > 100 µM (inactive) | 71.1 µM (inactive) | > 100 µM (inactive) | 42.1 µM (inactive) | > 100 µM (inactive) | 56 µM (inactive) | 44.6 µM (inactive) | 52.5 µM (inactive) | 46.7 µM (inactive) | 18.9 µM (inactive) | 50.1 µM (inactive) | 51.2 µM (inactive) | > 100 µM (inactive) | > 100 µM (inactive) | 63.2 µM (inactive) | 18.2 µM (inactive) | – |
| C/C(=C\c1ccccc1)C(O)C(=O)c1nc2ccc(Cl)cc2nc1O (configuration not stated) | > 100 µM (inactive) | > 100 µM (inactive) | > 100 µM (inactive) | 26 µM (inactive) | > 100 µM (inactive) | > 100 µM (inactive) | > 100 µM (inactive) | > 100 µM (inactive) | – | > 100 µM (inactive) | > 100 µM (inactive) | > 100 µM (inactive) | > 100 µM (inactive) | > 100 µM (inactive) | > 100 µM (inactive) | 55.5 µM (inactive) | > 100 µM (inactive) |
| CCCn1cc2c(SC)nc(SC)nc2n1 | > 100 µM (inactive) | > 100 µM (inactive) | > 100 µM (inactive) | > 100 µM (inactive) | > 100 µM (inactive) | > 100 µM (inactive) | > 100 µM (inactive) | > 100 µM (inactive) | > 100 µM (inactive) | > 100 µM (inactive) | 32.2 µM (inactive) | – | > 100 µM (inactive) | > 100 µM (inactive) | > 100 µM (inactive) | > 100 µM (inactive) | > 100 µM (inactive) |
